“Also recorded” adds a separate entry of the source.

Assay [1] addresses T1, VEGF binding to heparin (HS-GAG) (Homo sapiens, UniProt P15692).
T1 construct: purchased Research and Development Systems
T1 sequence (P15692 27-191 isoform P15692-4): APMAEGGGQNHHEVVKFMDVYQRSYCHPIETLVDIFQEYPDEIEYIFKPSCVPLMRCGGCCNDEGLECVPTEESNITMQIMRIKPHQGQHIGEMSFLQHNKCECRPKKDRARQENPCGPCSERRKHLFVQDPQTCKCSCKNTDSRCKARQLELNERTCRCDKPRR
Kind of assay: In vitro VEGF to HS-GAG binding assay (ELISA, heparin-BSA coated plate). An excerpt: An in vitro assay was used to assess the ability of test compounds of general formulas I and II to inhibit the interaction of VEGF with HS-GAGs. The assay was designed to for determine the concentration required for 50% inhibition (IC-50) for each specific compound. The test compounds were purchased from Life Chemicals Ltd. (Kiev, Ukraine), and the GAG used was heparin (heparin grade I-A; Sigma) conjugated to bovine serum albumin (Sigma) and diluted 1:200 in phosphate-buffered saline (PBS; pH 7.3). The heparin was added to a 96-well polystyrene ELISA plate (NUNC; 0.1 ml per well) and incubated overnight at 4° C. Following the incubation, the plate was washed thoroughly, by immersion, with de-ionized water and then with PBS (pH 7.3) containing Tween 20 (Sigma, 0.05%). The ELISA plate was then blocked with BSA (ICN, 3%, 200 μl per well) for 1 hour at room temperature. Following blocking, the plate was washed with de-ionized water, and then twice with PBS (pH 7.3) containing Tween 20. Recombinant human VEGF (Research and Development Systems) dissolved in PBS supplemented with BSA (0.1%) was added to the ELISA plate. The test compounds were dissolved in DMSO (MERCK), diluted in PBS and added to the wells at concentrations ranging from 0.01 to 200 μM to obtain a final volume 100 μl per well, and incubated for 60 minutes at room temperature with shaking. Following incubation, the plate was washed with de-ionized water and PBS (pH 7.3) containing Tween 20. Anti-human VEGF (1:2000; Research and Development Systems) diluted in PBS supplemented with BSA (1%) was added to the ELISA plate (100 per well) and incubated for 60 minutes at room temperature with shaking. Following incubation, the plate was washed with de-ionized water and then with PBS (pH 7.3) containing Tween 20. Streptavidin-HRP (1:200; Research and Development Systems Cat. No. DY998) diluted in PBS supplemented with BSA (1%) was added to the ELISA plate (100 per well) and incubated for 20 minutes at room temperature with shaking. The plate was then washed with de-ionized water and twice with PBS (pH 7.3) containing Tween 20. The peroxidase substrate chromogen tetramethyl benzidine (TMB; Dako) was added (100 μl per well) to the ELISA plate and incubated at room temperature. After 15 minutes, ELISA Stop Solution (hydrochloric acid 1N, sulfuric acid 3N) was added (100 μl per well) to stop the peroxidase catalyzed colorimetric reaction. The Optical Density (OD) of the samples was measured at 450 nm using an ELISA plate reader (Dynatech MR5000). Data were analyzed with Graphpad Prism software and IC-50 values were determined.
Percent inhibition at 30 μM concentration is shown and for selected compounds IC-50 was established.

Assay [2] deals with carrageenan-induced paw edema in BALB/c mice. Kind of assay: Carrageenan-induced paw edema. In kind it is in vivo. Here is the method: FIG. 1 is a graph showing the anti-inflammatory activity of Compounds 1-6 administered to mice intraperitoneally (i.p.) at 20 mg/kg, 1 hour before induction of paw edema (10-12 mice per group). The swelling of paws was measured 4 hours after induction, compared to controls and expressed as difference in paw thickness in mm (y-axis). The results were statistically evaluated by Student's t-test and statistical significance is indicated by one, two or three stars ([…]).
Acute edema was induced in the […] of BALB/c mice (10-12 mice/group) by injecting 0.02 ml of freshly prepared solution of 2% carrageenan (Sigma) under the plantar region of right hind paw (Tones et al., 2000). Carrageenan was injected 60 min after administration of the test compounds. The right paw received 0.02 ml of saline, which served as a control. The paw thickness was measured at 2, 4 and 24 hours after carrageenan challenge using a Mitutoyo engineer's micrometer. The difference between right and left pad was expressed as mean±SEM. Test compounds were injected intraperitoneally (i.p.) (20 mg/kg) in 0.5% Tween 80 in saline and vehicle control group received 0.5% Tween 80 in saline.
Compound 1 reduced paw edema by 33% and the reduction was statistically significant as determined by Student's t-test with […].

The test system of assay [3] is oxazolone-induced ear swelling in BALB/c mice. In words: Delayed-type hypersensitivity (DTH), oxazolone mouse ear-swelling test. The class given is in vivo. The settings on record: for inhibition of ear swelling (in words): DTH, FIG. 2, oral 50 mg/kg; for reduction of ear swelling: per os 50 mg/kg, 1 hour prior to challenge, after 48 hours. Here is the method:
FIG. 2 is a graph showing the anti-inflammatory activity of Compounds 1, 2, 4, 5, 6 administered to mice orally at 50 mg/kg in a model of delayed-type hypersensitivity (DTH) (11-13 mice per group). The results for dexamethasone (10 mg/kg i.p.), a steroid positive control, are also shown. The y-axis represents difference in ear thickness in mm compared to control. The results were statistically evaluated by Student's t-test and statistical significance is indicated by one, two or three stars ([…]).
BALB/c mice (Velaz, Prague, Czech Republic; 8 week-old; 10-15 animals per group) were sensitized by topical application of a 2% oxazolone (4-ethoxymethylene-2-phenyl-2-oxazolin-5-one; Sigma, St Louis, Mo.) solution in acetone/olive oil (4:1 vol/vol) to a shaved abdomen area (50 μl) and to each paw (5 μl)(Lange-Asschenfeldt et al., 2002). Topical oxazolone administration induces immunomodulatory activity. Five days after sensitization, right ears were challenged by topical application of 10 μl of a 1% oxazolone solution, whereas left ears were treated with vehicle alone. Test compounds were administered 1 hour prior to challenge. The extent of inflammation was measured 24 hours and 48 hours after challenge, using the mouse ear-swelling test. Animals were numbered (tail marking) and weighed and the thickness of both ears was recorded with a constant-loading dial micrometer (Mitutoyo, Tokyo). The unpaired Student t-test was used for statistical analyses. Test compounds were administered per os at 50 mg/kg as a suspension with 0.5% methylcellulose. The vehicle control group received the same volume of 0.5% methylcellulose.

Setting [4] is: 20 mg/kg i.p., 60 min before carrageenan, 4 hours after induction.

`CN1CCc2c(sc(NC(=O)CCN3C(=O)c4ccccc4C3=O)c2-c2nc3ccccc3s2)C1` [Compound 6, N-[3-(2-benzothiazolyl)-4,5,6,7-tetrahydro-6-methylthieno[2,3-c]pyridin-2-yl]-3-(1,3-dihydro-1,3-dioxo-2H-isoindole-2)propanamide] showed an inhibition at 30 µM in assay [1] of 29%. In assay [2] (setting [4]), the “reduction of paw edema” value was found to be 19.5%. Besides, in assay [3], the “inhibition of ear swelling (in words)” value was “significantly inhibited ear swelling” and the “reduction of ear swelling” value is recorded as 19.1%.
In assay [1], `CCN1CCc2c(sc(NC(=O)c3ccc(C#N)cc3)c2-c2nc3ccccc3s2)C1` [Compound 1, N-[3-(2-benzothiazolyl)-4,5,6,7-tetrahydro-6-ethylthieno[2,3-c]pyridin-2-yl]-4-cyanobenzamide] registered an IC50 of 220 nM and an inhibition at 30 µM of 82%. The “reduction of paw edema” value in assay [2] (setting [4]) was 33%. Further, in assay [3], the “reduction of ear swelling” value came out at 41.4%.
In assay [1], `CN1CCc2c(sc(NC(=O)c3cc4ccccc4o3)c2-c2nc3ccccc3s2)C1` [Compound 5, N-[3-(2-benzothiazolyl)-4,5,6,7-tetrahydro-6-methylthieno[2,3-c]pyridin-2-yl]-benzo[b]furan-2-carboxamide] registered an IC50 of 140 nM and an inhibition at 30 µM of 81%. The “reduction of paw edema” value in assay [2] (setting [4]) is 29.2%. The “inhibition of ear swelling (in words)” value in assay [3] (50 mg/kg) is “significantly inhibited ear swelling; also recorded: Particularly strong response, comparable with the steroid dexamethasone”. In addition, in assay [3], the “reduction of ear swelling” value is 49.3%.
For the molecule `CC(C)N1CCc2c(sc(NC(=O)c3ccc(N(C)C)cc3)c2-c2nc3ccccc3s2)C1` [Compound 2, N-[3-(2-benzothiazolyl)-4,5,6,7-tetrahydro-6-(1-methylethyl)thieno[2,3-c]pyridin-2-yl]-4-(dimethylamino)benzamide], in assay [1], the IC50 stood at 1700 nM and the inhibition at 30 µM came to 53%. Also, in assay [2] (setting [4]), the “reduction of paw edema” value is on record as 28.1%. The “reduction of ear swelling” value in assay [3] worked out at 18.1%.
With `CN1CCc2c(sc(NC(=O)c3cccs3)c2-c2nc3ccccc3s2)C1` [Compound 7, N-[3-(2-benzothiazolyl)-4,5,6,7-tetrahydro-6-methylthieno[2,3-c]pyridin-2-yl]-2-thiophenecarboxamide], in assay [1], the half-inhibitory concentration (IC50) came out at 1700 nM and the inhibition at 30 µM is 70%. Besides, the “reduction of paw edema” value in assay [2] (50 mg/kg dose, separate experiment (data not shown)) is reported as 18.5%. In addition, the “reduction of ear swelling” value in assay [3] is reported as 32.7%.

Source of the values: patent publication US20100298370A1, “BENZOTHIAZOLYL THIENOPYRIDINE DERIVATIVES AND USES THEREOF” (priority 2006, published 2010).
